{
  "source": "patent US20080160099A1",
  "about": "“Methods For Treating or Preventing a Vascular Disease” (THE TRUSTEES OF COLUMBIA UNIVERSITY IN THE CITY OF NEW YORK, priority 2004, published 2008)",
  "format_in_all_cases": "biochemical",
  "key": {"MMP-2": {"molecular_target": "T1, MMP-2 (Homo sapiens, UniProt P08253)", "T1 construct": "endogenous in cells; host or cells: fibroblasts cultured from AAA (abdominal aortic aneurysm) specimens", "T1 sequence (P08253 110-660)": "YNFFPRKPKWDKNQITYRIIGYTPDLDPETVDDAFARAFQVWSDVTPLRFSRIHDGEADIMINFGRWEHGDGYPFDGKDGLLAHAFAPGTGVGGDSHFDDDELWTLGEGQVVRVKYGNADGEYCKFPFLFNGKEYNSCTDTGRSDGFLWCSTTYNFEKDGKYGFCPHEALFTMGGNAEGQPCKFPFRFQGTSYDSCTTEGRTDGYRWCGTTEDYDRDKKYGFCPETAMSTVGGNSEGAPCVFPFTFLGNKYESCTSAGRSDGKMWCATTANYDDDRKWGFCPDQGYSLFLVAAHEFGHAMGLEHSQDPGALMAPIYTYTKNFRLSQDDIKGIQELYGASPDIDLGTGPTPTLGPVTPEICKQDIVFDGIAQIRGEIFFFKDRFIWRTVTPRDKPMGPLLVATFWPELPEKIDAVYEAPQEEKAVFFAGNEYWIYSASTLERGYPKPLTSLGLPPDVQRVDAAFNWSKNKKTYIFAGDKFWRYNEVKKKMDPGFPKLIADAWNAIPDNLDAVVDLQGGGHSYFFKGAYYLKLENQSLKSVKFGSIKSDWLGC", "test": "MMP-2 activity in lysates of fibroblasts cultured from AAA specimens, gelatin zymography with densitometry", "conditions": "for MMP-2 inhibitory ability (in words): aneurysmal fibroblast MMP-2; for MMP-2 Inhibitory Activity: relative, aneurysmal fibroblast lysates, 1 hour incubation on ice", "method": "Properties of different test compounds against MMP-2 activity of aneurysmal fibroblast origin were examined on 10% polyacrylamide gels containing 1.0 mg/mL of gelatin. Fibroblasts cultured from AAA specimens were lysed using the CellLytic-M lysis/extraction reagent. The protein concentration of each supernatant was determined using the Bradford method using bovine serum albumin as a standard. The aortic fibroblast lysates were incubated alone (control) or with an illustrative Compound or Extract of the Invention at various concentrations for 1 hour on ice. After test compound incubation, equivalent amounts of proteins (30 μg) were mixed with an equal volume of sample buffer (2% SDS, 125 mM Tris-HCL, pH 6.8, 10% glycerol and 0.001% bromophenol blue) and the resulting mixture was subjected to electrophoresis in Trir-glycine el. buffer (25 mMTris pH 8.3, 250 mM Glycine, 0.1% SDS) under denatured but non-reduced conditions. After completion of electrophoresis, the gels were incubated in 2% Triton X-100 for 30 min at room temperature to ensure complete removal of SDS. The gels were then incubated at 37° C. overnight in development buffer (0.005M Tris-HCl (pH 7.5), 0.2MNaCl, 0.005MCaCl2, and 0.02% Brij-35) (Bio-Rad). Gels were stained with 0.05% Coomassie blue R250 (Bio-Rad) for 30 min and destained twice in a mixture of 40% methanol and 10% acetic acid for 20 min. Enzyme activity was detected as unstained bands on a blue background. Quantity One (Bio-Rad Version 4.3.1) was used as a densitometer to quantitate test compound inhibitory ability."}, "C3a": {"tested_on": "C3a", "test": "Complement factor C3a levels in normal human serum, with or without HAGG", "conditions": "alone and with HAGG, 30 minutes at 37° C.", "method": "(§1) An experiment to measure the complement factors C3a and C5a was carried out at […] for 30 minutes using heat-aggregated gamma globulin (HAGG, at 14 mg/mL), a complement activator with known activity, as a positive control.\n(§2) Four separate mixtures were prepared by mixing 8 parts of normal human serum with: (1) 2 parts saline, (2) 1 part saline and 1 part HAGG, (3) 1 part saline and 1 part fucosylated chondroitin sulfate (FCS), or (4) 1 part HAGG and 1 part FCS. These four mixtures were then incubated for 30 minutes at 37° C. and the complement was examined by assaying for levels of C3a and C5a."}, "total complement": {"tested_on": "total complement", "test": "Total complement activity (CH50) in human serum", "conditions": "30 minutes at 37° C.", "method": "Blood was collected from a healthy human donor and allowed to clot at room temperature for 60 minutes. The serum was separated from the clotted blood and transferred to a clean tube. Fucosylated chondroitin sulfate (FCS) was incubated in concentrations of 0.1 mg/mL, 0.4 mg/mL and 1 mg/mL for 30 minutes at 37° C. and the complement was examined by assaying total complement activity (CH50). Complement inhibition was about 40% at a FCS concentration of 0.1 mg/mL, about 83% at a concentration of 0.4 mg/mL and complete at a concentration of 1.0 mg/mL."}, "C5a": {"tested_on": "C5a", "test": "Complement factor C5a levels in normal human serum, with or without HAGG", "conditions": "alone and with HAGG, 30 minutes at 37° C.", "method": "as §1, §2"}},
  "data": [
    {"molecule": "Oc1cc(O)c2c(c1)O[C@H](c1cc(O)c(O)c(O)c1)[C@H](O)C2", "note": "[(−)-epigallocatechin]", "values": [
      {"measurement": "MMP-2 inhibitory ability (in words)", "setting": "MMP-2", "value": "inhibit aneurysmal fibroblast MMP-2 activity"},
      {"measurement": "MMP-2 Inhibitory Activity", "setting": "MMP-2", "value": "+"}
    ]},
    {"molecule": "CCC(C)CCCCCCCCCCC(=O)O", "note": "(centres unmarked) [12-methyltetradecanoic acid]", "values": [
      {"measurement": "MMP-2 inhibitory ability (in words)", "setting": "MMP-2", "value": "inhibit aneurysmal fibroblast MMP-2 activity"},
      {"measurement": "MMP-2 Inhibitory Activity", "setting": "MMP-2", "value": "+"}
    ]},
    {"molecule": "fucosylated chondroitin sulfate", "values": [
      {"measurement": "inhibitory activity toward C3a", "setting": "C3a", "value": "strong inhibitory activity"},
      {"measurement": "Complement inhibition (CH50)", "setting": "total complement; 0.1 mg/mL", "value": "about 40%"},
      {"measurement": "Complement inhibition (CH50)", "setting": "total complement; 0.4 mg/mL", "value": "about 83%"},
      {"measurement": "Complement inhibition (CH50)", "setting": "total complement; 1.0 mg/mL", "value": "complete"},
      {"measurement": "MMP-2 inhibitory ability (in words)", "setting": "MMP-2", "value": "inhibit aneurysmal fibroblast MMP-2 activity"},
      {"measurement": "MMP-2 Inhibitory Activity", "setting": "MMP-2", "value": "+++"},
      {"measurement": "inhibitory activity toward C5a", "setting": "C5a", "value": "strong inhibitory activity"}
    ]}
  ]
}
